Experimental data as given in the NIST ThermoML archive (doi:10.1016/j.fluid.2018.05.031).
Numbers after ± are expanded uncertainties.

Details: Liquid; Ebulliometric method (Recirculating still)

Normal boiling temperature [°C]	SMILES
64.50 ± 0.2	CO [methanol]
56.90 ± 0.2	COC(C)=O [methyl ethanoate]
